Measured values as given in patent publication US9969749B2, “Inhibitors of IRAK4 activity” (MERCK SHARP & DOHME CORP., priority 2014, dated 2018).

What follows are molecules tested against IRAK4 (Homo sapiens (Human), UniProt Q9NWZ3) (assay: IRAK4 Kinase Assay (IMAP fluorescence polarization)). Conditions: 0.5 nM GST tagged IRAK4, 100 μM ATP, 100 nM fluorescent peptide substrate RP7030, 30 minutes at 25° C.
IRAK4, sequence (Q9NWZ3 whole entry): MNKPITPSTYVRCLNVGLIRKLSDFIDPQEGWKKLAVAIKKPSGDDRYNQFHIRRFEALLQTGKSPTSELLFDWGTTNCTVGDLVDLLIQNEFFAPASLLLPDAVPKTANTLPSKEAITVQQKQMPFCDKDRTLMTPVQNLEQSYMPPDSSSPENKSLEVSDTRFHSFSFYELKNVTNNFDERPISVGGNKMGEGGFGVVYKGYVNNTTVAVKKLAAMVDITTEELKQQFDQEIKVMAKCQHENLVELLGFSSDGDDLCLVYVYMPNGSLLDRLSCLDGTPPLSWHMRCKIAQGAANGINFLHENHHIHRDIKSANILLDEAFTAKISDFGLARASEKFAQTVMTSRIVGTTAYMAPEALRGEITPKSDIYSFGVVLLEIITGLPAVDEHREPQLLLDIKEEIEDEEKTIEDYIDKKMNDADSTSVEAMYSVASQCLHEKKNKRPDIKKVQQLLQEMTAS
Type: biochemical
Description: The kinase activity of IRAK4 is determined by its ability to catalyze the phosphorylation of a fluorescent polypeptide substrate. The extent of phosphorylation is measured using the IMAP technology (Molecular Devices) where the phosphorylated fluorescent substrate binds to the large M(III)-based nanoparticles which reduces the rotational speed of the substrate and thus increases its fluorescent polarization (FP).
20 μL reaction mixture contains 10 mM TriHCl, pH 7.2, 0.5 nM GST tagged IRAK4 (SignalChem), 100 nM fluorescent peptide substrate (RP7030, Molecular Devices), 100 μM ATP, 1 mM DDT, 1 mM MgCl2, and 0.01% Tween 20. The reaction is initiated by the addition of ATP. After incubation for 30 minutes at 25° C., 60 μL of Progressive IMAP Reagent (Molecular Devices) is added to stop the reaction. Change in RP7030's FP is determined by a FP reader (Analyst HT, LJL BioSystems).
In the case of Oc1cccc(-c2ccc3ncnc(N[C@H]4CC[C@H](N5CCOCC5)CC4)c3c2)c1 [Example 1-72, 3-{4-[(trans-4-morpholin-4-ylcyclohexyl)amino]quinazolin-6-yl}phenol], the IC50 is reported as 6 nM. In the case of Nc1cncc(-c2ccc3ncnc(N[C@H]4CC[C@H](N5CCOCC5)CC4)c3c2)c1 [Example 1-73, 6-(5-aminopyridin-3-yl)-N-(trans-4-morpholin-4-ylcyclohexyl)quinazolin-4-amine], the IC50 is reported as 1 nM. For Nc1cc(-c2ccc3ncnc(N[C@H]4CC[C@H](N5CCOCC5)CC4)c3c2)ccn1 [Example 1-74, 6-(2-aminopyridin-4-yl)-N-(trans-4-morpholin-4-ylcyclohexyl)quinazolin-4-amine], the IC50 was 3 nM. Molecule Cn1cc(-c2ccc3ncnc(N[C@H]4CC[C@H](N5CCOCC5)CC4)c3c2)cn1 [Example 1-75, 6-(1-methyl-1H-pyrazol-4-yl)-N-(trans-4-morpholin-4-ylcyclohexyl)quinazolin-4-amine] has an IC50 of 39 nM. Cc1c(-c2cncnc2)ccc2ncnc(N[C@H]3CC[C@H](N4CCOCC4)CC3)c12 [Example 1-76, 5-methyl-N-(trans-4-morpholin-4-ylcyclohexyl)-6-pyrimidin-5-ylquinazolin-4-amine] was tested, and the IC50 was 223 nM. Cc1c(-c2cnn(C)c2)ccc2ncnc(N[C@H]3CC[C@H](N4CCOCC4)CC3)c12 [Example 1-77, 5-methyl-6-(1-methyl-1H-pyrazol-4-yl)-N-(trans-4-morpholin-4-ylcyclohexyl)quinazolin-4-amine] gave an IC50 of 1310 nM. With Cc1c(-c2ccncc2)ccc2ncnc(N[C@H]3CC[C@H](N4CCOCC4)CC3)c12 [Example 1-78, 5-methyl-N-(trans-4-morpholin-4-ylcyclohexyl)-6-pyridin-4-ylquinazolin-4-amine] the IC50 was 433 nM. Molecule Cc1c(-c2cncc(O)c2)ccc2ncnc(N[C@H]3CC[C@H](N4CCOCC4)CC3)c12 [Example 1-79, 5-{5-methyl-4-[(trans-4-morpholin-4-ylcyclohexyl)amino]quinazolin-6-yl}pyridin-3-ol] has an IC50 of 38 nM. Molecule Fc1cc2ncnc(N[C@H]3CC[C@H](N4CCOCC4)CC3)c2cc1-c1cn[nH]c1 [Example 1-80, 7-fluoro-N-(trans-4-morpholin-4-ylcyclohexyl)-6-(1H-pyrazol-4-yl)quinazolin-4-amine] has an IC50 of 2 nM. With CNc1cncc(-c2ccc3ncnc(N[C@H]4CC[C@H](N5CCOCC5)CC4)c3c2)c1 [Example 1-81, 6-[5-(methylamino)pyridin-3-yl]-N-(trans-4-morpholin-4-ylcyclohexyl)quinazolin-4-amine] the IC50 was 2 nM. With c1nc(N[C@H]2CC[C@H](N3CCOCC3)CC2)c2cc(-c3cn[nH]c3)ccc2n1 [Example 1-82, N-(trans-4-morpholin-4-ylcyclohexyl)-6-(1H-pyrazol-4-yl)quinazolin-4-amine] the IC50 was 2 nM. In the case of Nc1cccc(-c2ccc3ncnc(N[C@H]4CC[C@H](N5CCOCC5)CC4)c3c2)c1 [Example 1-83, 6-(3-aminophenyl)-N-(trans-4-morpholin-4-ylcyclohexyl)quinazolin-4-amine], the IC50 is reported as 9 nM. Oc1cncc(-c2cc3c(N[C@H]4CC[C@H](N5CCOCC5)CC4)ncnc3cc2F)c1 [Example 1-84, 5-{7-fluoro-4-[(trans-4-morpholin-4-ylcyclohexyl)amino]quinazolin-6-yl}pyridin-3-ol] was tested, and the IC50 was 1 nM. Nc1cncc(-c2cc3c(N[C@H]4CC[C@H](N5CCOCC5)CC4)ncnc3cc2F)c1 [Example 1-85, 6-(5-aminopyridin-3-yl)-7-fluoro-N-(trans-4-morpholin-4-ylcyclohexyl)quinazolin-4-amine] was tested, and the IC50 was 10 nM. Molecule CNc1cncc(-c2cc3c(N[C@H]4CC[C@H](N5CCOCC5)CC4)ncnc3cc2F)c1 [Example 1-86, 7-fluoro-6-[5-(methylamino)pyridin-3-yl]-N-(trans-4-morpholin-4-ylcyclohexyl)quinazolin-4-amine] has an IC50 of 23 nM. In the case of Fc1cc2ncnc(N[C@H]3CC[C@H](N4CCOCC4)CC3)c2cc1-c1cncnc1 [Example 1-87, 7-fluoro-N-(trans-4-morpholin-4-ylcyclohexyl)-6-pyrimidin-5-ylquinazolin-4-amine], the IC50 is reported as 15 nM. c1cc(-c2ccc3ncnc(N[C@H]4CC[C@H](N5CCOCC5)CC4)c3c2)c2cc[nH]c2c1 [Example 1-88, 6-(1H-indol-4-yl)-N-[trans-4-(morpholin-4-yl)cyclohexyl]quinazolin-4-amine] showed an IC50 of 100 nM. With Cc1ncc(-c2ccc3ncnc(N[C@H]4CC[C@H](N5CCOCC5)CC4)c3c2)cn1 [Example 1-89, 6-(2-methylpyrimidin-5-yl)-N-[trans-4-(morpholin-4-yl)cyclohexyl]quinazolin-4-amine] the IC50 was 18 nM. Molecule FC(F)(F)c1ncc(-c2ccc3ncnc(N[C@H]4CC[C@@H](N5CCOCC5)CC4)c3c2)cn1 [Example 1-90, N-[cis-4-(morpholin-4-yl)cyclohexyl]-6-[2-(trifluoromethyl)pyrimidin-5-yl]quinazolin-4-amine] has an IC50 of 169 nM. c1nc(N[C@H]2CC[C@H](N3CCOCC3)CC2)c2cc(-c3cc[nH]n3)ccc2n1 [Example 1-91, N-[trans-4-(morpholin-4-yl)cyclohexyl]-6-(1H-pyrazol-3-yl)quinazolin-4-amine] gave an IC50 of 20 nM. Molecule CS(=O)(=O)Nc1cncc(-c2ccc3ncnc(N[C@H]4CC[C@H](N5CCOCC5)CC4)c3c2)c1 [Example 1-92, N-[5-(4-{[trans-4-(morpholin-4-yl)cyclohexyl]amino}quinazolin-6-yl)pyridin-3-yl]methanesulfonamide] has an IC50 of 24 nM. Cc1cncc(-c2ccc3ncnc(N[C@H]4CC[C@H](N5CCOCC5)CC4)c3c2)c1 [Example 1-93, 6-(5-methylpyridin-3-yl)-N-[trans-4-(morpholin-4-yl)cyclohexyl]quinazolin-4-amine] gave an IC50 of 26 nM. OCc1cncc(-c2ccc3ncnc(N[C@H]4CC[C@H](N5CCOCC5)CC4)c3c2)c1 [Example 1-94, [5-(4-{[trans-4-(morpholin-4-yl)cyclohexyl]amino}quinazolin-6-yl)pyridin-3-yl]methanol] gave an IC50 of 10 nM. Work on CC(C)(O)c1cncc(-c2ccc3ncnc(N[C@H]4CC[C@H](N5CCOCC5)CC4)c3c2)c1 [Example 1-95, 2-[5-(4-{[trans-4-(morpholin-4-yl)cyclohexyl]amino}quinazolin-6-yl)pyridin-3-yl]propan-2-ol] yielded an IC50 of 330 nM. c1nc(N[C@H]2CC[C@H](N3CCOCC3)CC2)c2cc(-c3cnoc3)ccc2n1 [Example 1-96, 6-(isoxazol-4-yl)-N-[trans-4-(morpholin-4-yl)cyclohexyl]quinazolin-4-amine] showed an IC50 of 9 nM. Work on Fc1cncc(-c2ccc3ncnc(N[C@H]4CC[C@H](N5CCOCC5)CC4)c3c2)c1 [Example 1-97, 6-(5-fluoropyridin-3-yl)-N-[trans-4-(morpholin-4-yl)cyclohexyl]quinazolin-4-amine] yielded an IC50 of 22 nM. Work on N#Cc1cncc(-c2ccc3ncnc(N[C@H]4CC[C@H](N5CCOCC5)CC4)c3c2)c1 [Example 1-98, 5-(4-{[trans-4-(morpholin-4-yl)cyclohexyl]amino}quinazolin-6-yl)pyridine-3-carbonitrile] yielded an IC50 of 21 nM. Clc1cncc(-c2ccc3ncnc(N[C@H]4CC[C@H](N5CCOCC5)CC4)c3c2)c1 [Example 1-99, 6-(5-chloropyridin-3-yl)-N-[trans-4-(morpholin-4-yl)cyclohexyl]quinazolin-4-amine] gave an IC50 of 11 nM. Molecule Oc1cc(-c2ccc3ncnc(N[C@H]4CC[C@H](N5CCOCC5)CC4)c3c2)cnc1Cl [Example 1-100, 2-chloro-5-(4-{[trans-4-(morpholin-4-yl)cyclohexyl]amino}quinazolin-6-yl)pyridin-3-ol] has an IC50 of 1 nM. Molecule CCOC(=O)c1cn(C)nc1-c1ccc2ncnc(N[C@H]3CC[C@H](N4CCOCC4)CC3)c2c1 [Example 2-1, Ethyl 1-methyl-3-(4-(((trans)-4-morpholinocyclohexyl)amino)quinazolin-6-yl)-1H-pyrazole-4-carboxylate] has an IC50 of 6030 nM. Work on Cc1nc(-c2ccc3ncnc(N[C@H]4CC[C@H](N5CCOCC5)CC4)c3c2)cs1 [Example 2-2, 6-(2-methyl-1,3-thiazol-4-yl)-N-(trans-4-morpholin-4-ylcyclohexyl)quinazolin-4-amine] yielded an IC50 of 92 nM. With CC(C)c1nc(-c2ccc3ncnc(N[C@H]4CC[C@H](N5CCOCC5)CC4)c3c2)cs1 [Example 2-3, 6-[2-(1-methylethyl)-1,3-thiazol-4-yl]-N-(trans-4-morpholin-4-ylcyclohexyl)quinazolin-4-amine] the IC50 was 390 nM. For FC(F)(F)c1cncc(-c2ccc3ncnc(N[C@H]4CC[C@H](N5CCOCC5)CC4)c3c2)c1 [Example 2-4, N-(trans-4-morpholin-4-ylcyclohexyl)-6-[5-(trifluoromethyl)pyridin-3-yl]quinazolin-4-amine], the IC50 was 119 nM. Work on Oc1ncc(C(F)(F)F)cc1-c1ccc2ncnc(N[C@H]3CC[C@H](N4CCOCC4)CC3)c2c1 [Example 2-5, 3-{4-[(trans-4-morpholin-4-ylcyclohexyl)amino]quinazolin-6-yl}-5-(trifluoromethyl)pyridin-2-ol] yielded an IC50 of 928 nM. Nc1cc(-c2ccc3ncnc(N[C@H]4CC[C@H](N5CCOCC5)CC4)c3c2)cnc1F [Example 2-7, 6-(5-amino-6-fluoropyridin-3-yl)-N-(trans-4-morpholin-4-ylcyclohexyl)quinazolin-4-amine] gave an IC50 of 1 nM. For O=C(O)c1cccc(-c2ccc3ncnc(N[C@H]4CC[C@H](N5CCOCC5)CC4)c3c2)n1 [Example 2-8, 6-{4-[(trans-4-morpholin-4-ylcyclohexyl)amino]quinazolin-6-yl}pyridine-2-carboxylic acid], the IC50 was 122 nM.
